We go through one compound from article PMC6568410, “A scorpion venom peptide derivative BmKn‒22 with potent antibiofilm activity against Pseudomonas aeruginosa” (PLoS ONE, 2019).

The structures appear in SMILES notation.

The subject of one test is P. aeruginosa PAO1. The test is described as follows: MIC, broth microdilution. The following applies: broth microdilution in LB broth, 10^6 CFU/mL, 37 °C, 24 h; printed only as half of the MIC. Format: cell-based, Pseudomonas aeruginosa. The method, then:
MIC of azithromycin against P. aeruginosa was determined by using broth microdilution assay according to the protocol previously described with some modifications. Twofold serial dilutions of azithromycin (AZM; Sigma, St. Louis, USA) were prepared in LB broth in the wells of flat-bottomed 96-well microtiter plates (Nunc). Aliquots of P. aeruginosa PAO1 suspension at a final concentration of 10^6 CFU/mL was added to the wells of flat-bottomed 96-well microtiter plates (Nunc).
On the technique in general: Broth dilution looks for growth in wells or tubes with falling amounts of substance.

Test [1] deals with P. aeruginosa PAO1 biofilms. The test is described as follows: Antibiofilm activity of BmKn-22 and azithromycin alone or in combination, crystal violet. Format: cell-based, Pseudomonas aeruginosa. The protocol:
The effect of BmKn‒2 peptide and derivatives on biofilm formation of P. aeruginosa PAO1 was determined according to the method published previously with some modifications. Briefly, 100 μL of the test peptides was plated into the wells of flat-bottomed 96-well microtiter plates (Nunc™, Roskilde, Denmark) at the final concentrations of 200 ‒ 800 μM. Aliquots of the P. aeruginosa PAO1 suspension were then inoculated to the wells of 96-well microtiter plates to obtain a final concentration of 10^6 CFU/mL. Culture without the test peptides was used as the untreated control. After incubation at 37 ^OC for 24 h without agitation, planktonic cells were removed and the plates were gently rinsed twice with phosphate buffered saline (PBS) pH 7.4. Biofilms were then stained with 0.1% crystal violet solution (Merck, Darmstadt, Germany) for 10 minutes at room temperature. Excess stains were rinsed off with PBS pH 7.4 and the plates were left dry at 37 ^OC for 2 h. Subsequently, biofilm biomass was solubilized with 30% acetic acid and the optical density (OD) measured at 550 nm using a microplate reader (BioTek Synergy HT).
Briefly, P. aeruginosa PAO1 suspension (10^6 CFU/mL, final concentration) was added to the wells of flat-bottomed 96-well microtiter plates (Nunc) containing the test peptide, azithromycin (AZM; Sigma) alone or in combinations. […] Biofilm formation was employed by measuring biofilm biomass stained with crystal violet as a protocol described in previous section.

As for `CC[C@H]1OC(=O)[C@H](C)[C@@H](O[C@H]2C[C@@](C)(OC)[C@@H](O)[C@H](C)O2)[C@H](C)[C@@H](O[C@@H]2O[C@H](C)C[C@H](N(C)C)[C@H]2O)[C@](C)(O)C[C@@H](C)CN(C)[C@H](C)[C@@H](O)[C@]1(C)O` [AZM, azithromycin, reference compound], the “sub-MIC (1/2 of MIC) dose” value with P. aeruginosa PAO1 was 64 µg/mL. The “Biofilm biomass (% control)” value in test [1] (azithromycin alone 64 µg/ml (1/2 MIC), 24 h, 37 °C, crystal violet, mean of 3 independent experiments) was found to be 100.000 % control; in test [1] (azithromycin alone 64 µg/ml, Exp. 1) it was 100.000 % control; in test [1] (azithromycin alone 64 µg/ml, Exp. 2), 100.000 % control; in test [1] (azithromycin alone 64 µg/ml, Exp. 3), 100.000 % control. Further, the “biofilm inhibition by azithromycin alone” value in test [1] (sub-MIC dose (1/2 MIC, 64 µg/mL), result in words) was “significant biofilm inhibition was not evident”.
